Test results taken from US20230045112A1, “DISULFIRAM AND OTHER REDOX-RELATED COMPOSITIONS FOR BRAIN TUMORS” (Texas Tech University System, priority 2014, published 2023).
Read-outs that look alike come from different tables or passages of the source.

Legend:
[1] = test system: UW228 cells; assay: MTT cell survival assay; assay type: cell-based, human
Experimental: (§1) These were performed using the yellow tetrazolium dye (3-(4, 5-dimethylthiazolyl-2)-2, 5-diphenyl tetrazolium bromide) (MTT) as described previously. […] The purple color developed due to formazan was measured at 570 nm using a […]luor Plus plate reader (Tecan Inc.). Cell proliferation was also assessed by colony formation assays on soft agar.
(§2) Cells were then cultured for 48 hours before performing the MTT assays. […] The effect of drugs on cell survival was computed at each concentration. The data represents the results of three independent experiments performed in triplicate.

[2] = cited from earlier work
[3] = target: T1, purified recombinant MGMT (rMGMT) (Homo sapiens, UniProt P16455); assay: MGMT DNA repair activity ([3H]-methyl transfer), purified recombinant MGMT treated with DSF; assay type: biochemical
T1 construct: hexa-histidine; made in house; host or cells: E. coli
Experimental: (§3) The DNA repair activity of MGMT was measured by the transfer of [3H]-labeled methyl groups from the O^6-position of guanine in the DNA substrate to the MGMT protein as described previously. The DNA substrate enriched in O6-methylguanine was prepared by reacting [3H]-methylnitrosourea (GE Healthcare, 60 Ci/mmol). Briefly, the cell pellets were washed with cold PBS, disrupted by sonication in the assay buffer (30 mM Tris-HCl pH 7.5, 0.5 mM DTT, 0.5 mM EDTA, 5% glycerol, and 20 μM spermidine) and centrifuged. The extracts (50-150 μg protein) were supplemented with the [3H]-DNA (10,000 cpm) and incubated at 37° C. The reactions were terminated by the addition of TCA, the DNA substrate was hydrolyzed at 80° C., and following filtration on glass fiber discs; the radioactivity present in protein precipitates was quantitated.
(§4) Cells were trypsinized, washed and MGMT activity was determined in cell extracts (top panel). The same extracts were western blotted for MGMT protein. WB, western blot. […] Cells were exposed to CuDSF and analyzed for MGMT activity and protein as above. […] To delineate the appropriate time for alkylating drug treatments following MGMT inhibition, next, the time course of MGMT depletion by these three interventions was studied.

[4] = test system: U87 malignant glioma cells; assay: MTT cell survival assay, MGMT-deficient cells; assay type: cell-based, human; details: DSF-pretreated U87 cells lacking MGMT expression
Experimental: as §1
Cells were then cultured for 48 hours before performing the MTT assays. […] The effect of drugs on cell survival was computed at each concentration. The data represents the results of three independent experiments performed in triplicate. Values are mean+S.D. The results presented in panels B, C and G (at 25-75 μM BCNU and 250-750 temozolomide) were significant at P<0.05. *, indicates statistically significant difference as compared to controls.

[5] = target: T2, rMGMT (Homo sapiens, UniProt P16455); assay: In vitro degradation of DSF treated rMGMT in rabbit reticulocyte lysates; assay type: biochemical
T2 construct: hexa-histidine; made in house; host or cells: E. coli
T2 sequence (P16455 1-207): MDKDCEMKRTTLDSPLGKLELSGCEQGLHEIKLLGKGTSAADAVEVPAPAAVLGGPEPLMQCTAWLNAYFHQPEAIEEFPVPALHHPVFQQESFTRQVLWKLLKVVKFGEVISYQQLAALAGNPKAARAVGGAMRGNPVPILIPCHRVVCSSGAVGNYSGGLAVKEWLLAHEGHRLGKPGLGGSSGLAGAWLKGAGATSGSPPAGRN
Source text: DSF-exposed MGMT samples were dialyzed to remove the residual drug prior to the degradation assays. […] The protein bands were quantified by densitometry.
The samples were immunoblotted and probed with MGMT antibodies (right panel). The densitometric quantitation of protein bands on the western blots is shown as a line graph on the left. […] Cell lysates were western blotted for the MGMT protein. […] Kinetics of DNA interstrand crosslinks formed in UW228 cells after treatment with […] BCNU or […] melphalan is shown. […] They were then exposed to BCNU or melphalan. At times specified, the cells were harvested, DNA isolated and the extent of interstrand crosslinking of DNA was determined using the ethidium bromide fluorescence assay. Values are mean+S.D. The results were significant at P<0.05. […] The cells were trypsinized at times indicated and analyzed by flow cytometry.
Since the MGMT inactivated by BG is degraded through ub-proteolysis, it was of interest to investigate the mode of elimination of DSF-modified MGMT protein. Therefore, first, we compared the in vitro degradation of DSF-treated and untreated rMGMT protein in rabbit reticulocyte lysates (RL), which are known to promote the proteasomal degradation. The control and DSF-modified MGMT proteins were incubated with RL in the presence of Mg++, ATP and ubiquitin at 37° C. The reaction mixtures were blotted and probed with MGMT antibodies. […] To show the involvement of the ub-proteolysis in cells a clinically used proteasome inhibitor. […] Taken together, the results presented in FIGS. 4A-4B confirm that DSF-modified MGMT is perceived as a structurally altered/damaged protein in cells and eliminated through the ub-proteasomal route.

[6] = test system: wild-type and mutant p53, NF-κB, and ubiquitin E1; assay: Degradation of redox-sensitive proteins by disulfiram; assay type: cell-based
[7] = test system: UW228 cells; assay: Soft agar colony formation assay; assay type: cell-based, human; details: 50 μM DSF then BCNU or TMZ
Experimental: as §1, §2

[8] = target: T3, MGMT (Homo sapiens, UniProt P16455); assay: MGMT activity and protein (western blot) in drug-treated T98G and UW228 brain tumor cells; assay type: cell-based; parameters: endogenous in cells; host or cells: UW228, T98G
T3 sequence (P16455 1-207): T2 sequence (P16455 1-207)
Experimental: as §3
After trypsinization, the cell pellets were washed with cold PBS, and subjected to sonication in 50 mM Tris-HCl (pH 8.0) containing 1% glycerol, 1 mM EDTA, 0.5 mM PMSF and 2 mM benzamidine and centrifuged. Equal protein amounts from different treatments were electrophoresed on 12% SDS-polyacrylamide gels. Proteins were electro-transferred to Immobilon-P membranes. The membranes were blocked with 5% non-fat dry milk in Trisbuffered saline (TBS; pH 8.0) containing 0.1% Tween 20 for 3 hours, and subsequently incubated with appropriate primary antibodies. Antigen-antibody complexes were visualized by enhanced chemiluminiscence (Pierce Company). Band intensities were quantified using a Bio-Rad Versa Doc Imaging system.
as §4
At times indicated, MGMT activity and protein levels were assessed.
MGMT performs a stoichiometric reaction to accomplish the DNA repair and is not recycled to its active form. Instead, the inactivated protein is degraded and fresh translation has to occur to restore the MGMT levels in cells. The rate and extent of this recovery is an important factor in the extent of damage introduced to the normal cell genomes such as the bone marrow stem cells. […] MGMT protein and activity levels were analyzed during the depletion and repletion (FIG. 3B).

inhibition at 25 µM [3]: 40% | disappearance of DSF-modified rMGMT protein ([5]; 10 minutes of incubation): 30% | disappearance of DSF-modified rMGMT protein ([5]; 25 minutes of incubation): 45% | disappearance of DSF-modified rMGMT protein ([5]; 40 minutes of incubation): 70% | duration of inactivation of MGMT [8]: > 30 h | duration of suppression of MGMT activity in cell cultures [8]: 24 to 36 h | inhibition at 50 µM ([8]; 50 μM in culture medium, at 12 hours, maintained till 24 hours, read-out: maximal inhibition of MGMT activity and protein): 75% | inhibition at 50 µM ([8]; UW228 cells, 50 μM, 12 hours, read-out: loss/inhibition of MGMT activity at 12 hours post-drug treatment): 75% | reversibility of DSF modification of MGMT by DTT ([8]; UW228 cells, 10 mM DTT): largely irreversible | recovery of MGMT activity, % of control levels ([8]; UW228 cells, 48 hours post-drug in drug-free media after 50 μM for 12 hours): ~95 % of control levels | inhibition at 50 µM ([8]; read-out: inhibition of MGMT activity): ~70%
SMILES: CCN(CC)C(=S)SSC(=S)N(CC)CC [DSF, 1,1′,1″,1′″-[disulfanediylbis(carbonothioylnitrilo)]tetraethane]
effect on melphalan-induced cell killing ([1]; 50 μM DSF preincubation 12 hours): did not increase the melphalan-induced cell killing | potentiation of BCNU cytotoxicity ([1]; 50 μM DSF preincubation 12 hours, BCNU 4 days): 3 fold | increased cytotoxicity of TMZ+DSF compared to TMZ alone ([1]; 50 μM DSF preincubation 12 hours, TMZ 4 days): 4 to 5 fold | cell killing by DSF alone ([1]; 50 μM DSF, 24 hours, then cultured 48 hours): less than 5% | partition coefficient Log P [2]: 2.8 | effect on cell killing by TMZ or BCNU [4]: did not increase the extent of cell killing by TMZ or BCNU | degradation of redox-sensitive proteins [6]: degraded by disulfiram in a dose-dependent manner | enhanced cytotoxicity of BCNU or TMZ, colony formation [7]: 3 fold
